A short description of data set [1]: Thermodynamic (equilibrium) solubility at 37° C., immersed UV probes. Type of data set: physicochemical. Conditions: aqueous buffer, thermodynamic from solid.
For data set [2] the following is noted: pH 5; cited from earlier work.

Structures are written as SMILES. ≈ marks a conversion by molar mass, not a printed value.

As usually defined, the thermodynamic solubility is solubility found after equilibrating the solid with the medium. For the compound `COc1ccc(-c2nc3ccc(C4=NNC(=O)CC4C)cc3[nH]2)cc1` (stereo not drawn) [Crystalline pimobendan], the thermodynamic solubility in data set [1] (pH 3.0 (maleic acid buffer)) is 19.5 µg/mL (≈ 58.3 µM); in data set [1] (pH 6.5 (phosphate buffer)) it was 0.3 µg/mL (≈ 0.897 µM). Further, the “Solubility (amount that dissolves) in water” value in data set [2] is “about 1 mg/liter”.

(Values after US20240197727A1, “SOLID DISPERSIONS COMPRISING AMORPHOUS PIMOBENDAN AND ONE OR MORE STABILIZING POLYMERS” (Boehringer Ingelheim Vetmedica GmbH, priority 2022, published 2024).)
